These results are taken from patent publication US10780090B2, “Heteroaryl compounds useful as inhibitors of SUMO activating enzyme” (Millennium Pharmaceuticals, Inc., priority 2014, dated 2020).

For this assay, the target named is recombinant human SAE enzyme (Homo sapiens (Human), UniProt Q9UBT2). Kind of assay: SAE HTRF enzyme assay. The class given is biochemical. Particulars: for Percent Inhibition: SAE inhibition at compound concentration 0.111 μM; for IC50: SAE inhibition, class symbols, legend in nM. The method in brief: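 First, recombinant human SAE (0.11 nM) transfers Sumo-Flag onto Ubc9-GST using 0.5 μM ATP for 105 min at 24° C. Next, EDTA-containing detection buffer with labelled anti-Flag and anti-GST antibodies is added for 2 h. Finally, FRET is quantified and percent inhibition or IC50 derived.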

Each structure is given as a SMILES string.

Usually IC50 stands for the midpoint of a concentration-inhibition curve.

Sequence of recombinant human SAE enzyme (Q9UBT2 whole entry): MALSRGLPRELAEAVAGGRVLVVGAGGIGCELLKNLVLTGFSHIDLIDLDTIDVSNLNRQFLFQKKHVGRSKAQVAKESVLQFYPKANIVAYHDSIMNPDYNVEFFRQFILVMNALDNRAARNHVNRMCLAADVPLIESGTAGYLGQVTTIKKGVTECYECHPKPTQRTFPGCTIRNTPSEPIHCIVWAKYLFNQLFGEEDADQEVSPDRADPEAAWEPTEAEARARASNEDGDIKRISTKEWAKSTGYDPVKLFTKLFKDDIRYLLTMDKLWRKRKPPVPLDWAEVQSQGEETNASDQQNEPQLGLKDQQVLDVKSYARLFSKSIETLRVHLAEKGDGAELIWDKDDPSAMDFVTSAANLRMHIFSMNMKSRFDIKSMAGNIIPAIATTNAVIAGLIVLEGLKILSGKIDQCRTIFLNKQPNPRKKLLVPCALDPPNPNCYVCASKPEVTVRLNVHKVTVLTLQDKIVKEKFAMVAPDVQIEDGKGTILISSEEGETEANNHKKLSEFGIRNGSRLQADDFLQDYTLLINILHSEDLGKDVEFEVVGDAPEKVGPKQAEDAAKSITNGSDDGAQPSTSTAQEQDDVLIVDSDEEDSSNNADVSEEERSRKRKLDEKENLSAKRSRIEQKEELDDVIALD
Sequence of recombinant human SAE enzyme (Q9UBE0 whole entry partner): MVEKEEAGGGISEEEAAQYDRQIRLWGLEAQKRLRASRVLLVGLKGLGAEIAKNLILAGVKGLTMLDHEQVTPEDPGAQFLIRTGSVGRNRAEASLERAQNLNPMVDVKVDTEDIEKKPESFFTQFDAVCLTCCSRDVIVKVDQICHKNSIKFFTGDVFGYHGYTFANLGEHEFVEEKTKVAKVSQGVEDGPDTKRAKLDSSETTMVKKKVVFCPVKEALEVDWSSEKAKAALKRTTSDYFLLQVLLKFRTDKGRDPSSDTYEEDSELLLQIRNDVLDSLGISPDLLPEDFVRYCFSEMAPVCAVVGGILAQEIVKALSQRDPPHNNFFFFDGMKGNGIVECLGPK

Turning to `CN1CCc2ccc(Cl)cc2[C@@H]1c1csc(C(=O)c2cncnc2N[C@@H]2C[C@H](COS(N)(=O)=O)[C@@H](O)C2)c1` (single isomer, unassigned) [I-307a, [(1R,2S,4R)-4-{[5-({4-[(1R)-7-chloro-2-methyl-1,2,3,4-tetrahydroisoquinolin-1-yl]-2-thienyl}carbonyl)pyrimidin-4-yl]amino}-2-hydroxycyclopentyl]methyl sulfamate or [(1R,2S,4R)-4-{[5-({4-[(1S)-7-chloro-2-methyl-1,2,3,4-tetrahydroisoquinolin-1-yl]-2-thienyl}carbonyl)pyrimidin-4-yl]amino}-2-hydroxycyclopentyl]methyl sulfamate], the “Percent Inhibition” value worked out at 45% and the IC50 is 100 to 1000 nM.

With `CN1CCc2ccc(Cl)cc2[C@@H]1c1csc(C(=O)c2cncnc2N[C@@H]2C[C@H](COS(N)(=O)=O)[C@@H](O)C2)c1` (single isomer, unassigned) [I-307b, [(1R,2S,4R)-4-{[5-({4-[(1R)-7-chloro-2-methyl-1,2,3,4-tetrahydroisoquinolin-1-yl]-2-thienyl}carbonyl)pyrimidin-4-yl]amino}-2-hydroxycyclopentyl]methyl sulfamate or [(1R,2S,4R)-4-{[5-({4-[(1S)-7-chloro-2-methyl-1,2,3,4-tetrahydroisoquinolin-1-yl]-2-thienyl}carbonyl)pyrimidin-4-yl]amino}-2-hydroxycyclopentyl]methyl sulfamate], the “Percent Inhibition” value was 97% and the IC50 is less than 10 nM.

Turning to `NS(=O)(=O)OC[C@H]1C[C@@H](Nc2ncncc2C(=O)c2cc([C@@H]3OCc4ccc(Cl)cc43)c(Cl)s2)C[C@@H]1O` (single isomer, unassigned) [I-310a, [(1R,2S,4R)-4-{[5-({5-chloro-4-[(1R)-6-chloro-1,3-dihydro-2-benzofuran-1-yl]-2-thienyl}carbonyl)pyrimidin-4-yl]amino}-2-hydroxycyclopentyl]methyl sulfamate or [(1R,2S,4R)-4-{[5-({5-chloro-4-[(1S)-6-chloro-1,3-dihydro-2-benzofuran-1-yl]-2-thienyl}carbonyl)pyrimidin-4-yl]amino}-2-hydroxycyclopentyl]methyl sulfamate], the “Percent Inhibition” value amounted to 27% and the IC50 lay in the range of 100 to 1000 nM.

On to `NS(=O)(=O)OC[C@H]1C[C@@H](Nc2ncncc2C(=O)c2cc([C@@H]3OCc4ccc(Cl)cc43)c(Cl)s2)C[C@@H]1O` (single isomer, unassigned) [I-310b, [(1R,2S,4R)-4-{[5-({5-chloro-4-[(1R)-6-chloro-1,3-dihydro-2-benzofuran-1-yl]-2-thienyl}carbonyl)pyrimidin-4-yl]amino}-2-hydroxycyclopentyl]methyl sulfamate or [(1R,2S,4R)-4-{[5-({5-chloro-4-[(1S)-6-chloro-1,3-dihydro-2-benzofuran-1-yl]-2-thienyl}carbonyl)pyrimidin-4-yl]amino}-2-hydroxycyclopentyl]methyl sulfamate], for which the “Percent Inhibition” value is listed as 98% and the IC50 was less than 10 nM.

For the compound `CN1CCc2ccc(Cl)cc2[C@@H]1c1cc(C(=O)c2cncnc2N[C@@H]2C[C@H](COS(N)(=O)=O)[C@@H](O)C2)sc1Cl` (single isomer, unassigned) [I-311a, [(1R,2S,4R)-4-{[5-({5-chloro-4-[(1R)-7-chloro-2-methyl-1,2,3,4-tetrahydroisoquinolin-1-yl]-2-thienyl}carbonyl)pyrimidin-4-yl]amino}-2-hydroxycyclopentyl]methyl sulfamate or [(1R,2S,4R)-4-{[5-({5-chloro-4-[(1S)-7-chloro-2-methyl-1,2,3,4-tetrahydroisoquinolin-1-yl]-2-thienyl}carbonyl)pyrimidin-4-yl]amino}-2-hydroxycyclopentyl]methyl sulfamate], the “Percent Inhibition” value is 65% and the IC50 was in the range of 10 to 100 nM.

Take `CN1CCc2ccc(Cl)cc2[C@@H]1c1cc(C(=O)c2cncnc2N[C@@H]2C[C@H](COS(N)(=O)=O)[C@@H](O)C2)sc1Cl` (single isomer, unassigned) [I-311b, [(1R,2S,4R)-4-{[5-({5-chloro-4-[(1R)-7-chloro-2-methyl-1,2,3,4-tetrahydroisoquinolin-1-yl]-2-thienyl}carbonyl)pyrimidin-4-yl]amino}-2-hydroxycyclopentyl]methyl sulfamate or [(1R,2S,4R)-4-{[5-({5-chloro-4-[(1S)-7-chloro-2-methyl-1,2,3,4-tetrahydroisoquinolin-1-yl]-2-thienyl}carbonyl)pyrimidin-4-yl]amino}-2-hydroxycyclopentyl]methyl sulfamate]: the “Percent Inhibition” value came to 96% and the IC50 is less than 10 nM.

Regarding `NS(=O)(=O)OC[C@H]1C[C@@H](Nc2ncncc2C(=O)c2cc([C@@H]3OCCCc4ccc(Cl)cc43)cs2)C[C@@H]1O` (single isomer, unassigned) [I-314a, [(1R,2S,4R)-4-{[5-({4-[(1R)-8-chloro-1,3,4,5-tetrahydro-2-benzoxepin-1-yl]-2-thienyl}carbonyl)pyrimidin-4-yl]amino}-2-hydroxycyclopentyl]methyl sulfamate or [(1R,2S,4R)-4-{[5-({4-[(1S)-8-chloro-1,3,4,5-tetrahydro-2-benzoxepin-1-yl]-2-thienyl}carbonyl)pyrimidin-4-yl]amino}-2-hydroxycyclopentyl]methyl sulfamate], the “Percent Inhibition” value is listed as 49% and the IC50 lay in the range of 100 to 1000 nM.

Regarding `NS(=O)(=O)OC[C@H]1C[C@@H](Nc2ncncc2C(=O)c2cc([C@@H]3OCCCc4ccc(Cl)cc43)cs2)C[C@@H]1O` (single isomer, unassigned) [I-314b, [(1R,2S,4R)-4-{[5-({4-[(1R)-8-chloro-1,3,4,5-tetrahydro-2-benzoxepin-1-yl]-2-thienyl}carbonyl)pyrimidin-4-yl]amino}-2-hydroxycyclopentyl]methyl sulfamate or [(1R,2S,4R)-4-{[5-({4-[(1S)-8-chloro-1,3,4,5-tetrahydro-2-benzoxepin-1-yl]-2-thienyl}carbonyl)pyrimidin-4-yl]amino}-2-hydroxycyclopentyl]methyl sulfamate], the “Percent Inhibition” value was 98% and the IC50 was less than 10 nM.

For the compound `NS(=O)(=O)OC[C@H]1C[C@@H](Nc2ncncc2C(=O)c2cc(C3SCCc4ccc(Cl)cc43)cs2)C[C@@H]1O` (single isomer, unassigned) [I-320a, [(1R,2S,4R)-4-{[5-({4-[(1R)-7-chloro-3,4-dihydro-1H-isothiochromen-1-yl]-2-thienyl}carbonyl)pyrimidin-4-yl]amino}-2-hydroxycyclopentyl]methyl sulfamate or [(1R,2S,4R)-4-{[5-({4-[(1S)-7-chloro-3,4-dihydro-1H-isothiochromen-1-yl]-2-thienyl}carbonyl)pyrimidin-4-yl]amino}-2-hydroxycyclopentyl]methyl sulfamate], the “Percent Inhibition” value worked out at 27% and the IC50 lay in the range of 100 to 1000 nM.

Turning to `NS(=O)(=O)OC[C@H]1C[C@@H](Nc2ncncc2C(=O)c2cc(C3SCCc4ccc(Cl)cc43)cs2)C[C@@H]1O` (single isomer, unassigned) [I-320b, [(1R,2S,4R)-4-{[5-({4-[(1R)-7-chloro-3,4-dihydro-1H-isothiochromen-1-yl]-2-thienyl}carbonyl)pyrimidin-4-yl]amino}-2-hydroxycyclopentyl]methyl sulfamate or [(1R,2S,4R)-4-{[5-({4-[(1S)-7-chloro-3,4-dihydro-1H-isothiochromen-1-yl]-2-thienyl}carbonyl)pyrimidin-4-yl]amino}-2-hydroxycyclopentyl]methyl sulfamate], the “Percent Inhibition” value was found to be 93% and the IC50 is less than 10 nM.

As to `NS(=O)(=O)OC[C@H]1C[C@@H](Nc2ncncc2C(=O)c2cc([C@@H]3CCCc4ccc(Cl)cc43)cs2)C[C@@H]1O` (single isomer, unassigned) [I-335a, [(1R,2S,4R)-4-{[5-({4-[(1R)-7-chloro-1,2,3,4-tetrahydronaphthalen-1-yl]-2-thienyl}carbonyl)pyrimidin-4-yl]amino}-2-hydroxycyclopentyl]methyl sulfamate or [(1R,2S,4R)-4-{[5-({4-[(1S)-7-chloro-1,2,3,4-tetrahydronaphthalen-1-yl]-2-thienyl}carbonyl)pyrimidin-4-yl]amino}-2-hydroxycyclopentyl]methyl sulfamate], the “Percent Inhibition” value worked out at 14% and the IC50 was in the range of 100 to 1000 nM.

Turning to `NS(=O)(=O)OC[C@H]1C[C@@H](Nc2ncncc2C(=O)c2cc([C@@H]3CCCc4ccc(Cl)cc43)cs2)C[C@@H]1O` (single isomer, unassigned) [I-335b, [(1R,2S,4R)-4-{[5-({4-[(1R)-7-chloro-1,2,3,4-tetrahydronaphthalen-1-yl]-2-thienyl}carbonyl)pyrimidin-4-yl]amino}-2-hydroxycyclopentyl]methyl sulfamate or [(1R,2S,4R)-4-{[5-({4-[(1S)-7-chloro-1,2,3,4-tetrahydronaphthalen-1-yl]-2-thienyl}carbonyl)pyrimidin-4-yl]amino}-2-hydroxycyclopentyl]methyl sulfamate], the “Percent Inhibition” value turned out to be 41% and the IC50 is 100 to 1000 nM.

Regarding `COc1ccc2c(n1)[C@H](c1cc(C(=O)c3cncnc3N[C@@H]3C[C@H](COS(N)(=O)=O)[C@@H](O)C3)sc1C)OCC2` (single isomer, unassigned) [I-339a, [(1R,2S,4R)-2-hydroxy-4-{[5-({4-[(8S)-2-methoxy-5,8-dihydro-6H-pyrano[3,4-b]pyridin-8-yl]-5-methyl-2-thienyl}carbonyl)pyrimidin-4-yl]amino}cyclopentyl]methyl sulfamate or [(1R,2S,4R)-2-hydroxy-4-{[5-({4-[(8R)-2-methoxy-5,8-dihydro-6H-pyrano[3,4-b]pyridin-8-yl]-5-methyl-2-thienyl}carbonyl)pyrimidin-4-yl]amino}cyclopentyl]methyl sulfamate], the “Percent Inhibition” value is recorded as 99% and the concentration for half-maximal inhibition (IC50) was less than 10 nM.
